Consider 9 molecules from US11414424B2, “Cardiac sarcomere inhibitors” (Cytokinetics, Inc., priority 2018, dated 2022).

In test [1] the test system is bovine cardiac myofibrils. In words: Myofibril assay: PK/LDH-coupled steady-state ATPase activity of skinned bovine cardiac myofibrils. Type of test: biochemical. As to conditions: Ca2+ activating to 75% of maximal rate. In outline:
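Steady-state ATPase of detergent-skinned bovine left-ventricular myofibrils (1 mg/mL), PK/LDH-coupled NADH read at 340 nm, in PIPES/MgCl2 buffer pH 6.8 with 50 μM ATP, 0.6 mM EGTA and CaCl2 set for 50% or 75% activation. Inhibition of activity measured.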

For test [2], the system named is adult cardiac ventricular rat myocytes. In words: Adult ventricular myocyte contractility (fractional shortening). Type of test: cell-based. As to conditions: 5 min perfusion. How it is done: Adult male Sprague-Dawley rats were anesthetized and the hearts were quickly excised, rinsed and the ascending aorta was cannulated. Continuous retrograde perfusion was initiated on the hearts at a perfusion pressure of 60 cm H2O. Hearts were first perfused with a nominally Ca^2+-free modified Krebs solution of the following composition: 113 mM NaCl, 4.7 mM KCl, 0.6 mM KH2PO4, 0.6 mM Na2HPO4, 1.2 mM MgSO4, 12 mM NaHCO3, 10 mM KHCO3, 30 mM taurine, 5.5 mM glucose and 10 mM Hepes (all Sigma). This medium was not recirculated and was continually aerated with a 95% O2/5% CO2 mixture. After approximately 3 minutes, the heart was perfused with a modified Krebs buffer supplemented with collagenase (Worthington) and 12.5 μM final calcium concentration. The heart was removed from the cannulae after the heart appeared blanched and soft in appearance. The atria and vessels were removed and the ventricles were gently dissected into smaller pieces with forceps. The tissue was homogenized by repeated pipette trituration and the collagenase reaction was stopped by 10% bovine calf serum (BCS), sedimentation and resuspension in perfusion buffer containing 5% BCS and 12.5 uM CaCl2. Myocytes were made calcium tolerant by stepwise addition of a CaCl2 solution to a final concentration of 1.2 mM. Cells were then washed and resuspended in Tyrode's buffer (137 mM NaCl, 3.7 mM KCl, 0.5 mM MgCl, 11 mM glucose, 4 mM Hepes, and 1.2 mM CaCl2, pH 7.4). Cells were kept for 60 min at 37° C. prior to initiating experiments and used within 5 hrs of isolation. […] Additionally, only cells whose basal contractility was between 3 and 8% were used in subsequent experiments with compounds.
Aliquots of myocytes in Tyrode's buffer were placed in perfusion chambers (series 20 RC-27NE; Warner Instruments) complete with heating platforms. Myocytes were allowed to attach, the chambers were heated to 37° C., and the cells were perfused with 37° C. Tyrode's buffer. Myocytes were field stimulated at 1 Hz in with platinum electrodes (20% above threshold). Only cells that had clear striations and were quiescent prior to pacing were used for contractility experiments. To determine basal contractility, myocytes were imaged through a 40× objective. […] Once cell contraction was stable over time, test compounds (0.01-15 μM) were perfused into the chambers on the myocytes for 5 minutes. Contractility of the myocytes and contraction and relaxation velocities were then recorded using edge detection.
Five or more individual myocytes were tested per compound from two or more different myocyte preparations. For each cell, twenty or more contractility transients at basal (defined as 1 min prior to compound infusion) and after compound addition (defined as 5 min after starting compound perfusion), were averaged and compared. These average transients were analyzed using the IonWizard software (IonOptix) to determine changes in diastolic length and fractional shortening. Fractional shortening was calculated as: ((resting length−length at peak contraction) divided by the resting length). The percent change in fractional shortening from baseline was calculated as: ((post-dose fractional shortening/basal fractional shortening)*100). The percent reduction in fractional shortening from baseline was calculated as: (100−percent change in fractional shortening from baseline). Maximum contraction and relaxation velocities (um/sec) was also determined. Results from individual cells were averaged and the SEM was calculated.

Test [3] has as its system male Sprague Dawley rats. Briefly: Echocardiography assessment of acute pharmacodynamic effect on rat cardiac contractility, oral dosing. In kind it is in vivo. The procedure: (§1) Assessment of in vivo cardiac function by echocardiography was performed in male Sprague Dawley rats under isoflurane (1-3%) anesthesia. 2-D M-mode images of the left ventricle were acquired in the parasternal long-axis view before, during, and after administration of compounds by continuous IV infusion or oral gavage. In vivo fractional shortening was determined by M-mode image analysis with the following calculation: ((End diastolic diameter−end systolic diameter)/end diastolic diameter×100). For continuous IV infusion experiments, three pre-dose baseline M-mode images were taken at 1 minute intervals prior to infusion of compound. Compounds were formulated in 50% Propylene Glycol (PG): 16% Captisol: 10% dimethylacetamide (DMA) and delivered via a jugular vein catheter at the rate of 1 mL/kg/h. During infusion, M-mode images were taken at 5 minute intervals. The infusion was stopped when fractional shortening reached up to a 60% reduction from baseline. Blood samples were taken to determine the plasma concentration of the compounds. Data were reported as an estimated IC50 value, which is the concentration at which fractional shortening is 50% of the pre-dose baseline contractility.
For oral dosing studies, three pre-dose baseline M-Mode images were taken at 1 minute intervals prior to compound administration. Compounds were formulated in a 0.5% hydroxypropyl methylcellulose 2910 (HPMC 2910): 0.1% Tween 80 suspension and delivered as a single dose (5 mL/kg) by oral gavage. At one and four hours post-dose, rats were lightly anesthetized for M-mode echocardiography measurement. The compound effect on cardiac fractional shortening are presented as a percent reduction of baseline fractional shortening (=100%) in Table D.
Concurrent with echocardiography measurements, blood samples are taken to determine the corresponding compound plasma concentration, which may be represented as IC50 and IC10 values, which is the concentration at which fractional shortening is 50% and 10% of the pre-dose baseline contractility, respectively.

The subject of test [4] is male Sprague Dawley rats. In words: Echocardiography assessment of acute pharmacodynamic effect on rat cardiac contractility, continuous IV infusion. Type of test: in vivo. As to conditions: estimated plasma concentration at which fractional shortening is 50% of the pre-dose baseline contractility, read-out: IC50 (mean ± SD). The procedure: as §1

On to `CC(C)N1CC(=O)N(Cc2ccc(Cl)cc2)C(c2ccc(Cl)cc2)C1=O` (single isomer, unassigned) [Compound 288A, 3-(4-chlorophenyl)-4-[(4-chlorophenyl)methyl]-1-(propan-2-yl)piperazine-2,5-dione], for which, in test [1], the “CDMF75 IC15” value was found to be 0.8 µM. Further, in test [2] (5 μM), the “% FS (% reduction from baseline) ± SEM” value is reported as 64.4 ± 9.7%.
Consider `CC(C)N1CC(=O)N(Cc2ccc(Cl)cc2)C2(CCN(c3ccccn3)C2)C1=O` (single isomer, unassigned) [Compound 373A, 6-[(4-chlorophenyl)methyl]-9-(propan-2-yl)-2-(pyridin-2-yl)-2,6,9-triazaspiro[4.5]decane-7,10-dione], for which the “CDMF75 IC15” value in test [1] stood at 0.4 µM. For the same molecule, the “% FS (% reduction from baseline) ± SEM” value in test [2] (10 μM) came out at 76.6 ± 8.8%.
As to `O=C1C(C2COC2)N(Cc2ccc(C(F)(F)F)cc2)C(=O)CN1c1ncc(Cl)cc1F` (single isomer, unassigned) [Compound 861A, 1-(5-chloro-3-fluoropyridin-2-yl)-3-(oxetan-3-yl)-4-(4-(trifluoromethyl)benzyl)piperazine-2,5-dione], the “CDMF75 IC15” value in test [1] was determined as 1.0 µM. For the same molecule, the “% FS (% reduction from baseline) ± SEM” value in test [2] (5 μM) turned out to be 88.0 ± 3.31%. Besides, in the test with male Sprague Dawley rats [3] (10 mg/kg oral), the “FS (% reduction from baseline) at 1 h (Mean ± SEM)” value worked out at 13.4 ± 1.6% and the “FS (% reduction from baseline) at 4 h (Mean ± SEM)” value amounted to 2.0 ± 3.1%. In addition, in the test with male Sprague Dawley rats [3] (100 mg/kg oral), the “FS (% reduction from baseline) at 1 h (Mean ± SEM)” value turned out to be 50.0 ± 4.0% and the “FS (% reduction from baseline) at 4 h (Mean ± SEM)” value is reported as 48.8 ± 5.0%.
`CNC(=O)N1CC2(C1)C(=O)N(c1ccc(Cl)cc1)CC(=O)N2Cc1ccc(C(F)(F)F)cc1` [Compound 150, 8-(4-chlorophenyl)-N-methyl-6,9-dioxo-5-(4-(trifluoromethyl)benzyl)-2,5,8-triazaspiro[3.5]-nonane-2-carboxamide]: the “CDMF75 IC15” value in test [1] is 1.1 µM. Moreover, the concentration for half-maximal inhibition (IC50) in the test with male Sprague Dawley rats [4] was 5.44 ± 0.12 µM.
Take `N#Cc1ccc(N2CC(=O)N(Cc3ccc(C(F)(F)F)cc3)C3(CN(C=O)C3)C2=O)c(F)c1` [Compound 179, 3-fluoro-4-(2-formyl-6,9-dioxo-5-(4-(trifluoro-methyl)benzyl)-2,5,8-triazaspiro[3.5]nonan-8-yl)benzonitrile]: the “CDMF75 IC15” value in test [1] is 0.3 µM. Besides, the “FS (% reduction from baseline) at 1 h (Mean ± SEM)” value is reported as 33.8 ± 2.6% in the test on male Sprague Dawley rats [3] (3 mg/kg oral) and 51.9 ± 4.0% with male Sprague Dawley rats [3] (6 mg/kg oral). The results for the “FS (% reduction from baseline) at 4 h (Mean ± SEM)” value in the test on male Sprague Dawley rats [3] (3 mg/kg oral) and in the test on male Sprague Dawley rats [3] (6 mg/kg oral) were 4.5 ± 4.2% and 15.0 ± 5.4%, respectively.
As for `CC(=O)N1CC2(C1)C(=O)N(c1ccc(C#N)cc1F)CC(=O)N2Cc1ccc(C(F)(F)F)cc1` [Compound 202, 4-(2-acetyl-6,9-dioxo-5-[[4-(trifluoromethyl)phenyl]methyl]-2,5,8-triazaspiro[3.5]nonan-8-yl)-3-fluorobenzonitrile], in test [1], the “CDMF75 IC15” value turned out to be 0.8 µM. Moreover, in test [2] (5 μM), the “% FS (% reduction from baseline) ± SEM” value came out at 68.4 ± 9.5%. Further, the IC50 in the test with male Sprague Dawley rats [4] is 3.24 ± 0.07 µM. In addition, in the test on male Sprague Dawley rats [3] (3 mg/kg oral), the “FS (% reduction from baseline) at 1 h (Mean ± SEM)” value was 21.88 ± 2.66% and the “FS (% reduction from baseline) at 4 h (Mean ± SEM)” value is given as 11.25 ± 5.54%. Further, in the test with male Sprague Dawley rats [3] (15 mg/kg oral), the “FS (% reduction from baseline) at 1 h (Mean ± SEM)” value came to 51.08 ± 1.93% and the “FS (% reduction from baseline) at 4 h (Mean ± SEM)” value came to 20.18 ± 3.59%.
On to `CC(=O)N1CC[C@]2(C1)C(=O)N(c1ccc(C#N)cc1F)CC(=O)N2Cc1ccc(Cl)cc1` [Compound 206, (S)-4-(2-acetyl-6-(4-chlorobenzyl)-7,10-dioxo-2,6,9-triazaspiro[4.5]decan-9-yl)-3-fluorobenzonitrile], for which the “CDMF75 IC15” value in test [1] was 0.5 µM. In addition, in test [2] (10 μM), the “% FS (% reduction from baseline) ± SEM” value is 95.1 ± 1.6%.
Take `N#Cc1ccc(N2CC(=O)N(Cc3ccc(C(F)(F)F)cc3)C3(CC3)C2=O)c(F)c1` [Compound 278, 4-(5,8-dioxo-4-(4-(trifluoromethyl)benzyl)-4,7-diazaspiro[2.5]octan-7-yl)-3-fluorobenzonitrile]: in test [1], the “CDMF75 IC15” value was determined as 0.5 µM. Moreover, the entries for the “FS (% reduction from baseline) at 1 h (Mean ± SEM)” value with male Sprague Dawley rats [3] (3 mg/kg oral) and with male Sprague Dawley rats [3] (6 mg/kg oral) were 15.8 ± 2.0% and 34.4 ± 3.3%, respectively. Further, the entries for the “FS (% reduction from baseline) at 4 h (Mean ± SEM)” value with male Sprague Dawley rats [3] (3 mg/kg oral) and with male Sprague Dawley rats [3] (6 mg/kg oral) were 10.6 ± 5.6% and 12.2 ± 4.2%, respectively.
As to `CC(=O)N1CC2(C1)C(=O)N(c1ccc(C#N)cc1F)CC(=O)N2[C@@H](C)c1ccc(C(F)(F)F)cc1` [Compound 339, (S)-4-(2-acetyl-6,9-dioxo-5-(1-(4-(trifluoromethyl)phenyl)ethyl)-2,5,8-triazaspiro[3.5]nonan-8-yl)-3-fluorobenzonitrile], the “CDMF75 IC15” value in test [1] stood at 0.5 µM. The “FS (% reduction from baseline) at 1 h (Mean ± SEM)” value with male Sprague Dawley rats [3] (2.5 mg/kg oral) was 21.8 ± 2.8%; in the test on male Sprague Dawley rats [3] (5 mg/kg oral), 66.2 ± 2.9%. For the same molecule, the figures for the “FS (% reduction from baseline) at 4 h (Mean ± SEM)” value with male Sprague Dawley rats [3] (2.5 mg/kg oral) and with male Sprague Dawley rats [3] (5 mg/kg oral) were 5.8 ± 4.4% and 19.9 ± 2.0%, respectively.

In general, IC50 refers to the point on the concentration scale where inhibition reaches its midpoint.
